In test [1] the test system is tumour necrosis factor-α (TNF-α). Briefly: Mouse Tumour Necrosis Factor Test (Test B), mouse endotoxin shock model, serum TNF-α by ELISA. Type of test: in vivo, BALB/c mice. The settings on record: Mus musculus; minimum effective oral dose giving significant reduction in serum TNF-α of ≥35%; dosed 2 h before LPS i.p.; ≤ = active at dose given but not tested at lower doses; read-out: MTNF:MED. In short, it runs like this: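 BALB/c mice (n=4) dosed orally at 0.03–100 mg/kg in Tween 80/cellosize vehicle, then given E. coli LPS (100 µg) ip 2 h later. Serum collected 1 h after LPS and TNF-α quantified by sandwich ELISA at 450 nm against a standard curve. Groups compared with vehicle controls by ANOVA/t-test; active if reduction ≥35% at ≤100 mg/kg.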

Test [2] deals with lymphocyte proliferation (BALB/c responder and mitomycin C treated C57BL/6 stimulator spleen cells). As to the kind of experiment: Mixed Lymphocyte Reaction (Test A), one-way MLR, tritiated thymidine incorporation. It is filed as cell-based, mice. The settings on record: Mus musculus; concentration causing 50% inhibition of lymphocyte proliferation, by linear interpolation; ≤ = active at this concentration but not tested at lower doses. On the procedure: A mixed lymphocyte reaction (MLR) occurs when lymphocytes from two genetically dissimilar individuals, or inbred strains of mice are cultured together. An MLR results in the activation and proliferation of lymphocytes, which is measured by the incorporation of radiolabelled thymidine into the cellular DNA synthesised during cell division. A 'one-way' MLR is used to determine the immunosuppressive activity of test compounds in vitro. In this reaction one population of spleen cells serves as the stimulator cells and is treated with mitomycin C to prevent cell division. Spleen cells from a second allogeneic population (responder cells) are untreated and when mixed with the stimulator cells are able to undergo division which is measured. The degree of proliferation is measured in the presence and absence of test compound to assess the immunosuppressive activity of the compound.
The techniques for carrying out lymphocyte proliferation assays including MLRs are well known, eg Bradley, pages 156-166, in Mishell and Shiigi, Eds. Selected Methods in Cellular Immunology (Freeman, San Francisco, 1980); and Battisto et al, methods in Enzymology 1987; 150: 83-91. Various slight modifications of these techniques are in use and that used herein is described in Gibb, Webber and Bowen, J Immunological Methods 1985; 81: 107-113.
Cell suspensions obtained from the spleens of female BALB/c and C57BL/6 strain mice of between 6 and 9 weeks of age were used as sources of responder and stimulator cells respectively. The mice were killed using a rising concentration of CO2 and the spleens removed aseptically and teased using a scalpel and forceps to produce a single cell suspension in Hanks balanced salt solution (HBSS). The suspensions were filtered through cell strainers (Falcon), sedimented by centrifugation and resuspended in Tris-buffered ammonium chloride pH 7.2 (medium D) to lyse the erythrocytes. The cells were sedimented again and washed twice in HBSS before resuspending in complete RPMI 1640 tissue culture medium (medium E). The C57BL/6 cells were resuspended to 9 mls per spleen and a solution of mitomycin C at 400 µg/ml in medium E added to give a final concentration of 40 µg/ml. After incubation of the C57BL/6 cells at 37°C for 30 minutes in an atmosphere of 5% CO2 and 95% air, the cells were sedimented and washed 3 times in medium E. Both cell suspensions were diluted in medium E to 5 x 10^6 cells/ml. 100µl of each of the responder and stimulator cell suspensions were aliquoted into the wells of 96 well flat bottom microtitre plates containing 50 µl of test compound at an appropriate dilution (initially 50 µM diluted in medium E from a stock solution at 100 mM in dimethyl sulphoxide) giving a final test compound concentration of 10 µM (final dilution). Compounds active at this concentration were tested at further final dilution of 1 µM, 0.1 µM and 0.01 µM and 0.001 µM to determine the concentration of test compound which causes 50% inhibition of the immune response (IC50). After four days of culture at 37°C in a humidified atmosphere of 5% CO2 and 95% air, 1 µCi of tritiated thymidine in 20 µl of medium E was added to each well and the plates incubated for a further 24 hours. Cells were then harvested onto Inotech G7 glass fibre filter mats using an Inotech cell harvester. The filters were transferred to vials to which 2 ml of Packard Emulsifier-Safe scintillation fluid was added and the radioactivity from the incorporated thymidine was counted in a Packard liquid scintillation counter. The counts per minute (CPM) reflect the degree of lymphocyte proliferation. The data were analysed to determine the percentage inhibition of lymphocyte proliferation by the test compound. […]
In general terms: Incorporation of labelled thymidine or its analogues reports DNA synthesis.

pIC50: −log10 of the molar value.

The term pIC50 denotes −log10 of the IC50, conventionally taken in molar units. A high value points to a low IC50.

With `c1ccc(OCCN2CCC(CCn3ccnc3)CC2)cc1` [Example 87, 4-[2-(Imidazol-1-yl)ethyl]-1-(2-phenoxyethyl)piperidine], in test [1], the minimal effective dose is not above 100 mg/kg. For the same molecule, the pIC50 in test [2] is 5.10.
For the molecule `C(=Cc1ccccc1)CN1CCC(CCn2ccnc2)CC1` [Example 90, 1-Cinnamyl-4-[2-(imidazol-1-yl)ethyl]-piperidine], the minimal effective dose in test [1] was not above 30 mg/kg. In test [2], this molecule had a pIC50 of 5.66.
As to `O=C(CN1CCC(CCn2ccnc2)CC1)Nc1ccc(C(F)(F)F)cc1` [Example 91, 4-[2-(Imidazol-1-yl)ethyl]piperidino-4'-trifluoromethylacetanilide], the minimal effective dose in test [1] worked out at 30 mg/kg. Further, in test [2], the pIC50 is 7.00.
With `CC(c1ccc(Cl)cc1)N1CCC(CCn2ccnc2)CC1` (centres unmarked) [Example 93, 1-[1-(4-chlorophenyl)ethyl]-4-[2-(imidazol-1-yl)-ethyl]piperidine], the minimal effective dose in test [1] was found to be 30 mg/kg. In test [2], the pIC50 was 5.96.
With `Cl.Cl.c1ccc(CCCN2CCC(CCn3ccnc3)CC2)cc1` [Example 98, 4-[2-(imidazol-1-yl)ethyl]-1-(3-phenylpropyl)piperidine dihydrochloride], the minimal effective dose in test [1] was 30 mg/kg. For the same molecule, in test [2], the pIC50 is 6.52.
As to `c1ccc(CCCN2CCC(Cn3ccnc3)CC2)cc1` [Example 102, 4-Imidazol-1-ylmethyl-1-(3-phenylpropyl)piperidine], in test [1], the minimal effective dose is not above 100 mg/kg. The pIC50 in test [2] is 5.28.
Regarding `CC1CN(CCCc2ccccc2)CCC1CCn1ccnc1` (centres unmarked) [Example 103, 4-[2-(Imidazol-1-yl)ethyl]-3-methyl-1-(3-phenylpropyl)piperidine], in test [1], the minimal effective dose was not above 30 mg/kg. The molecule further showed a negative logarithm of the IC50 (pIC50) in test [2] of 5.72.
In the case of `c1ccc(CCCN2CCC(CCn3ccnc3-c3ccccc3)CC2)cc1` [Example 109, 4-[2-(2-Phenylimidazol-1-yl)ethyl]-1-(3-phenylpropyl)piperidine], the minimal effective dose in test [1] came to 100 mg/kg. The molecule also had a pIC50 in test [2] of 5.44.
Consider `Cc1nc2ccccc2n1CCC1CCN(CCCc2ccccc2)CC1` [Example 112, 2-Methyl-1-{2-[1-(3-phenylpropyl)piperidin-4-yl]ethyl}benzimidazole], for which, in test [1], the minimal effective dose was 100 mg/kg. The pIC50 in test [2] is 5.52.
The like results for `CC(Cn1ccnc1)C1CCN(CCCc2ccccc2)CC1` (centres unmarked) [Example 113, 4-[2-(Imidazol-1-yl)-1-methylethyl]-1-(3-phenylpropyl)piperidine] were, in that order, 10 mg/kg and 6.52.
Turning to `c1ccc(CCCN2CCC(CCn3cnc4ccccc43)CC2)cc1` [Example 114, 1-{2-[1-(3-Phenylpropyl)piperidin-4-yl]-ethyl}benzimidazole], the minimal effective dose in test [1] is 30 mg/kg. In test [2], this molecule had a pIC50 of 5.38.
The like results for `Cc1nc(Cl)c(Cl)n1CCC1CCN(CCCc2ccccc2)CC1` [Example 115, 4-[2-(4,5-Dichloro-2-methylimidazol-1-yl)ethyl]-1-(3-phenylpropyl)piperidine] were, in that order, 100 mg/kg and 5.92.
For the molecule `Cc1ncn(CCC2CCN(CCCc3ccccc3)CC2)c1C` [Example 116, 4-[2-(4,5-Dimethylimidazol-1-yl)ethyl]-1-(3-phenylpropyl)piperidine], the minimal effective dose in test [1] worked out at 30 mg/kg. The molecule further showed a pIC50 in test [2] of 5.70.
For `Cc1nccn1CCC1CCN(CCCc2ccccc2)CC1` [Example 117, 4-[2-(2-Methylimidazol-1-yl)ethyl]-1-(3-phenylpropyl)piperidine], in that order: 100 mg/kg and 6.70.
For the molecule `Cc1ccc(CCCN2CCC(CCn3ccnc3)CC2)cc1` [Example 122, 4-[2-(Imidazol-1-yl)ethyl]-1-[3-(4-methylphenyl)propyl]piperidine], the minimal effective dose in test [1] was not above 30 mg/kg. Besides, in test [2], the pIC50 was 5.55.
For `Clc1ccc(CCCN2CCC(CCn3ccnc3)CC2)cc1` [Example 123, 1-[3-(4-Chlorophenyl)propyl]-4-[2-(imidazol-1-yl)ethyl]piperidine], the minimal effective dose in test [1] is not above 30 mg/kg. The same molecule had a pIC50 in test [2] of 6.15.
For `CSc1ccc(CCCN2CCC(CCn3ccnc3)CC2)cc1` [Example 127, 4-[2-(Imidazol-1-yl)ethyl]-1-[3-(4-methylthiophenyl)propyl]piperidine], in that order: 30 mg/kg and 5.72.
Take `c1ccc(CCN2CCC(CCn3ccnc3)CC2)cc1` [Example 128, 4-[2-(Imidazol-1-yl)ethyl]-1-phenethylpiperidine]: in test [1], the minimal effective dose is not above 30 mg/kg. This molecule also showed a pIC50 in test [2] of 5.70.
For `c1ccc(CCCCN2CCC(CCn3ccnc3)CC2)cc1` [Example 129, 4-[2-(Imidazol-1-yl)ethyl]-1-(4-phenylbutyl)piperidine], in that order: 30 mg/kg and 5.68.
